Source: ChEMBL document CHEMBL3988442, “University of Dundee, Small-Polar-MMV Screening Library” (2021)

Key:
[1] = microbe, parasite or virus in culture; conditions: Mycobacterium tuberculosis, 72 h, read-out: pIC50 (converted)
[2] = microbe, parasite or virus in culture; conditions: Mycobacterium tuberculosis, 96 h, read-out: pIC50 (converted)

SMILES	IC50 [1] [µM]	IC50 [2] [µM]
COCCC1CN(C(=O)c2ccc(C)c(F)c2)CCO1 (configuration not stated)	257	234
N#Cc1cc(F)c(NCCc2ccc(F)cc2)c(F)c1	> 50.1	22.5
CC(C)(C)OC(=O)NC1CC2(CNC2)C1	244	> 501
CCc1noc(Cn2cnc3ccccc3c2=O)n1	> 501	> 501
Cc1cc2n(n1)CC(CNC1CCN(C3CC3)CC1)CN2 (configuration not stated)	> 50.1	> 50.1
CC(=O)c1sc(NCCc2ccccn2)nc1C	> 501	> 501
Cc1noc(NC(=O)c2ccc(C(F)(F)F)nc2C)n1	164	151
COc1ccc(C(=O)NCCCC2(C3OCCO3)CCOCC2)cc1	> 50.1	> 50.1
N#CCCN1CCCN(c2ccc(C#N)cc2)CC1	232	262
CN(C)c1cc2c(nn1)CCN(C(=O)c1cc3ccccc3[nH]c1=O)C2	> 50.1	> 50.1
CCc1nc(C)c(C(=O)NCC2CCS(=O)(=O)CC2)o1	> 501	> 501
Clc1ccc(-c2noc(CN3CCCNCC3)n2)cc1	213	216
CS(=O)(=O)N1CCC(NCCSc2cnn[nH]2)CC1	> 501	> 501
COC(=O)CSCc1nc(-c2ccc(Cl)cc2)no1	> 50.1	> 50.1
O=C(CCc1ccccc1)N1CCCNCC1	192	> 501
CCCC(C)CS(=O)(=O)NCc1ccncc1 (configuration not stated)	115	123
O=C(NC1CCCN(CCCc2ccccc2)C1)c1ccc(Cl)s1 (configuration not stated)	33.6	24.4
CC(C)c1nc(CSc2nnc(-c3cccs3)n2CC(N)=O)no1	30.9	> 50.1
NCc1noc2c1CCCC2	> 501	> 501
CC(C)COCC(O)CNc1nnc(C(C)C)s1 (configuration not stated)	111	86.9
COc1cccc([C@@H]2C[C@H]2N)c1	163	> 501
C[S+]([O-])c1nncn1CCCOc1cccc(Cl)c1 (configuration not stated)	341	> 501

SMILES	IC50 [1] [µM]	IC50 [2] [µM]
CC1Cc2ccccc2N(C(=O)c2csnn2)C1 (configuration not stated)	> 501	> 501
CCCNc1nc(CS(=O)(=O)c2ccccc2)cs1	> 50.1	> 50.1
CCN1CCN(Cc2cc(C(C)=O)ccc2OC)CC1	367	> 501
CC(C)C(NCC(N)=O)c1ccc(F)cc1 (configuration not stated)	> 501	> 501
O=c1c2sccc2nc2n1CCN(Cc1ccccc1C(F)(F)F)CC2	> 50.1	> 50.1
CN1CCCN(C(=O)COc2cccc(Cl)c2)CC1	283	> 501
Cn1cncc1CN1CCCC1c1cncc(Oc2ccc(F)cc2)n1 (configuration not stated)	19.4	> 50.1
Cc1cccc2[nH]cc(CCN)c12	124	229
Cc1nc[nH]c1CN1CCCC12CCN(c1nc3ccccc3s1)CC2	46	> 50.1
N#Cc1cccc(NCC(=O)NCc2ccco2)c1	223	108
CCC(C)(C)NC(=O)CNc1ccc2c(c1)OCCO2	95.2	75.9
COC(=O)CNC(=O)c1nc(Br)sc1C(C)C	> 50.1	> 50.1
O=C(CNc1cccc(CO)c1)NCc1ccc(Cl)s1	134	> 501
CN(C)C(C)(C)CNC(=O)NCCC1CCCCO1 (configuration not stated)	> 501	> 501
COc1cc(C(=O)N(Cc2cccs2)C2CC2)cc2c1OCCO2	> 50.1	> 50.1
NCC(CO)Cc1cc(F)cc(Br)c1 (configuration not stated)	305	264
Clc1cncc(NCC2CN(C3CC3)CCO2)n1 (configuration not stated)	259	311
CN1CCc2nc(NC(=O)CC(C)(C)C)sc2C1	210	127
COc1ccc(CNc2ncc(-c3cc(C)no3)c(C(C)C)n2)cc1	> 50.1	> 50.1
CCCN(CCO)CC(=O)N1CCCC(C)C1 (configuration not stated)	> 501	> 501
COC1(CNC(=O)c2cccc(C#N)c2)CCSC1 (configuration not stated)	> 50.1	> 50.1
CCCc1cncnc1N1CCC(NCc2cc3ccccc3[nH]2)CC1	18.3	18.3

SMILES	IC50 [1] [µM]	IC50 [2] [µM]
COc1ccc(CCN)c(Cl)c1OC	265	> 501
CCCNC(=O)c1nnn(-c2ccccc2OC)c1C	191	6.03
COc1ccc(OCCSc2n[nH]c(N)n2)cc1	199	220
CCCc1nc(N2CC[C@@H](c3ccc4c(c3)OCO4)[C@H](O)C2)no1	44.3	> 50.1
OCCOCCNCc1ccc(-c2ccc(F)cc2)o1	288	127
CNC(=O)C(C)(C)Oc1cccc(Cl)c1	> 501	> 501
CC1CCN(S(=O)(=O)NC(C)Cc2ccco2)CC1 (configuration not stated)	> 50.1	> 50.1
Cc1cnc(N2C(=O)CSC2c2ccc(N(C)C)cc2)s1 (configuration not stated)	7.14	5.45
Nc1ncccc1C(=O)NCCC1=CCCCC1	230	> 501
CC(C)n1ccc(CC(=O)N2CCCC2)n1	> 501	> 501
CCC1(CO)CCCN(CCn2cc(Cl)cn2)C1 (configuration not stated)	138	144
CN(C)S(=O)(=O)c1cccc(CN2CCCC2)c1	> 501	> 501
COc1c(C(=O)N2CCOCC2)sc2ccc(F)cc12	305	284
O=c1c2sccc2nc2n1CCN(Cc1ccc(F)c(F)c1)CC2	> 50.1	4.05
COc1cc(C(=O)NC(C)CC#N)ccc1C (configuration not stated)	185	184
COc1ccc(C(=O)N2CCOC(Cc3cccc(C(F)(F)F)c3)C2)o1 (configuration not stated)	35.1	10.7
Cc1onc(N)c1S(=O)(=O)NCc1ccccc1Cl	156	> 501
N[C@H]1CCCN(S(=O)(=O)c2ccc(C(=O)NCC(F)F)cc2)C1	> 50.1	> 50.1
Cc1cncc(NCc2ccccc2N2CCOCC2)c1	6.63	6.18
CCc1ccc(NC(=O)CN2CC[C@@H](N)C2)cc1	199	> 501
CCCn1nccc1C(=O)Nc1nc(C)c(C)s1	> 50.1	47.4
COC(=O)COc1cc(NCc2c(C)noc2C)c(Cl)cc1C	32.1	35

SMILES	IC50 [1] [µM]	IC50 [2] [µM]
Cc1ccc(C(=O)Nc2cnn(C)c2)cn1	> 501	> 501
CCCNc1cc(-n2cccn2)ncn1	58.4	280
CN(C)C(=O)CN1CCOC(CCc2ccccc2)C1 (configuration not stated)	> 501	> 501
CC(C)CCOc1ccc(C(C)NC(=O)Cn2cccnc2=O)cc1 (configuration not stated)	8.35	13.2
CC(C(=O)NCc1cccs1)S(=O)(=O)C1CCCC1 (configuration not stated)	164	> 501
COCCNC(=O)COc1ccc2c(c1)OCO2	128	62.9
N#Cc1cccc(N2CCCC(CO)(Cc3ccccc3F)C2)n1 (configuration not stated)	12.6	> 50.1
CC(Oc1ccc(Cl)cc1)C(=O)N(C)C (configuration not stated)	> 501	> 501
O=C(COc1ncccn1)Nc1ccc(F)cc1F	> 501	> 501
COc1ccc(-c2ccccc2CCN)c(OC)c1	48.2	41.6
Cc1cnn(CC2CCCN2c2ncnc3c2CCC3)c1 (configuration not stated)	> 50.1	> 50.1
NC(=O)COc1cccc(CN2CCC(F)CC2)c1	> 501	> 501
COC(=O)CNC(=O)c1ccc(C)c(-n2cccc2)c1	> 501	> 501
CC(CNC(=O)c1ccncc1)c1ccccc1 (configuration not stated)	189	> 501
O=C(CCn1cccc1)NCc1ccco1	96	> 501
CCC1CN(C(=O)c2ccc3ccccc3n2)CCO1 (configuration not stated)	97.4	> 501
COc1cccc(-c2ccc(CNS(N)(=O)=O)cc2)c1	159	283
CCC(N)c1ccccc1OC (configuration not stated)	267	> 501
COCCOCc1cccc(NC(=O)NC(C)C)c1	> 501	> 501
Cn1nccc1C(=O)NC1CCc2ccccc2OC1 (configuration not stated)	> 501	> 501
Cc1ccc(CN(Cc2ccncc2)C2CCN(C)CC2)s1	> 50.1	> 50.1
Cn1nc(CCN)c2ccccc21	57.8	197

SMILES	IC50 [1] [µM]	IC50 [2] [µM]
CCC(=O)c1ccc(CN)cc1	> 501	264
NC(=O)c1ccccc1NC(=O)CSc1ccccn1	116	> 501
CC1c2ccsc2CCN1CCC(=O)NC(N)=O (configuration not stated)	78.1	128
CNC(=O)C(C)Sc1nnnn1-c1ccccc1C (configuration not stated)	210	213
O=C(CN1CCN(c2ccccc2)CC1)N1CCCC1	> 501	> 501
COCCN(C)C(=O)Nc1cccc(Cl)c1	> 501	282
CC(C)(O)CSc1nnc(NCc2ccco2)s1	118	55.2
CC(CN)CNC(=O)c1ccc(C(F)(F)F)cc1 (configuration not stated)	> 501	> 501
O=S(=O)(CCN1CCC[C@H]1CO)c1ccccc1	198	> 501
Cc1nc(CNC(=O)c2cc(C3CC3)[nH]n2)cs1	> 501	> 501
Cc1cc(CN2CCN(C(=O)CCc3cccs3)CC2)on1	4.03	10.5
CSC1=Nc2c(cnn2-c2ccc(C)cc2)C2=NCCCN12	0.957	> 50.1
COc1cc(C(=O)NCCCc2ccccc2)on1	> 50.1	> 50.1
CCCNC(=O)c1ccc(C(=O)OC)cc1	120	> 501
CCNCc1nc(-c2ccccc2)no1	> 501	> 501
CN(C(=O)CN1CCCC1Cc1ccccc1)c1ccccc1 (configuration not stated)	33	> 50.1
COc1cccc(N2Cc3nc(=O)n(C(C)C)n3C2=O)c1	> 50.1	> 50.1
CC1CN(CCC(=O)NC(N)=O)CCO1 (configuration not stated)	80.3	286
